Literature values, collected in patent US6767992B1 (PTC Pharma AG, priority 2001, dated 2004).

Test system: RPMI 8322 melanoma cells

L-prolyl-L-m-sarcolysyl-L-p-fluorophenylalanine [PSF]
times more toxic than m-sarcolysine (relative to m-sarcolysine): 28 times
times more toxic than melphalan (relative to melphalan): 35 times
